Results published in US4183909A, “Phenylglycine-containing new peptides with gastrine effects and a process for the preparation thereof” (Richter Gedeon Vegyeszeti Gyar Rt., priority 1976, dated 1980).
Square brackets hold non-standard residues; d marks the D form. Peptide text beside a SMILES is read from it. * marks the point of attachment. dPhg = N[C@@H](C(=O)O)c1ccccc1; Phg = N[C@H](C(=O)O)c1ccccc1; X1 = CC(C)(C)OC(=O)NOCC(=O)*

Legend:
gastric acid secretion [1] = experiment: Gastric acid secretion increasing effect, administered parenterally or enterally (methods of Ghosh and Schild and of Lai, modified by Pissidis and Clark); format: in vivo
Description: The biological activities of the new compounds according to the invention were tested by the methods of Ghosh and Schild (Br. J. Pharmac. Chemoth. 13, 54 1958) and Lai (Gut 5, 327 1964), modified by Pissidis and Clark (Gut 8, 196 1967). The pharmacological tests have shown that the new compounds, when administered intravenously, increase the gastric acid secretion to a great extent. […] It is also remarkable that some of the new compounds highly increase the gastric acid secretion after resorption from the rectum.

gastric acid secretion [2] = details: in vivo; cited from earlier work

## CSCC[C@H](NC(=O)[C@H](Cc1c[nH]c2ccccc12)NC(=O)CONC(=O)OC(C)(C)C)C(=O)N[C@@H](CC(=O)O)C(=O)N[C@@H](C(N)=O)c1ccccc1 [BOC-OGly Met D, 2-(tert.-Butoxycarbonyl-aminooxy)-acetyl-L-tryptophyl-L-methionyl-L-aspartyl-D-phenylglycine-amide] (X1-WMD[dPhg]-NH2)
Gastric acid secretion [1]; 0.2 μg i.v.
  Gastric acid secretion increasing effect in comparison with that of a 0.2 μg/100 g i.v. dosage of pentagastrin: 28
Gastric acid secretion [1]; 2.0 μg i.v.
  Gastric acid secretion increasing effect in comparison with that of a 0.2 μg/100 g i.v. dosage of pentagastrin: 50

## CSCC[C@H](NC(=O)[C@H](Cc1c[nH]c2ccccc12)NC(=O)CONC(=O)OC(C)(C)C)C(=O)N[C@@H](CC(=O)O)C(=O)N[C@H](C(N)=O)c1ccccc1 [BOC-OGly Met L, 2-(tert.-Butoxycarbonyl-aminooxy)-acetyl-L-tryptophyl-L-methionyl-L-aspartyl-L-phenylglycine-amide] (X1-WMD[Phg]-NH2)
Gastric acid secretion [1]; 2.0 μg i.v.
  Gastric acid secretion increasing effect in comparison with that of a 0.2 μg/100 g i.v. dosage of pentagastrin: 116
Gastric acid secretion [1]; 20 μg intestinal (text: 20 μg/100 g body weight)
  Gastric acid secretion increasing effect in comparison with that of a 0.2 μg/100 g i.v. dosage of pentagastrin: 124
Gastric acid secretion [1]; 20 μg rectal
  Gastric acid secretion increasing effect in comparison with that of a 0.2 μg/100 g i.v. dosage of pentagastrin: 38

## CSCC[C@H](NC(=O)[C@H](Cc1c[nH]c2ccccc12)NC(=O)CCNC(=O)OC(C)(C)C)C(=O)N[C@@H](CC(=O)O)C(=O)N[C@@H](Cc1ccccc1)C(N)=O [pentagastrin, BOC-β-Ala-Trp-Met-Asp-Phe-NH2, reference compound]
Gastric acid secretion [1]; administered enterally, even in higher dosages
  Effect on gastric acid secretion: does not increase the gastric acid secretion

## H-Trp-Met-Asp-Phe-NH2
Gastric acid secretion [2]
  Gastric acid secretion stimulating effect relative to the total hormone (gastrin): lower by about one order of magnitude
